Legend:
[1] = Gravimetric solubility in water; format: physicochemical; settings: thermodynamic from solid; gravimetric, water
Procedure: The solubility in water of the salts was measured using a gravimetric solubility protocol.
(§1) 1 ml of water was charged into crystallisation tubes. The solid was weighed into a tared glass vial, added in portions to the solutions and the vial weighed after each addition until a hazy solution was observed. The amount in mg was then calculated to give the solubility in mg/ml.
as §1, with “The solubility in water of the salts was measured using a gravimetric solubility protocol. Thus, 1” for “1”, “mg/mL.” for “mg/ml.”

[2] = test system: panel of 48 cancer-derived cell lines; test: Proliferation assay on diverse cancer cell line panel, CellTiter-Glo, 72 hours; format: cell-based; settings: for IC50: 72 hours, listed as A-2
Procedure: Screening against diverse cancer cell lines was performed to identify tumour types displaying sensitivity to atropisomers A-1 and A-2. A panel of 48 cancer-derived cell lines was screened in a high-throughput proliferation assay using dilutions of atropisomers A-1/A-2. Cell lines that were screened included those representing cancer of the pancreas, large intestine/colorectum, lung, brain and nerves, and lymphoma and leukaemia cell lines. Cell lines were treated with serial half-log dilutions of compound and assayed 72 hours later for proliferation using CellTiter-Glo Assay (Promega). IC50 values were calculated by fitting the dose-response data using a nonlinear regression model.

[3] = molecular target: T1, panel of ninety-seven kinases (Homo sapiens, UniProt O75116); test: DiscoverX KinomeScreen kinase selectivity competition binding assay; settings: ROCK2; read-out: % Ctrl @ 3 μM
T1 construct: purchased DiscoverX; host or cells: T7 phage in E. coli (BL21-derived) for most kinases; HEK-293 for the rest
Procedure: (§2) Atropisomer A-2 has been tested for off-target activity against a panel of ninety-seven kinases distributed across the kinome at a concentration of 3 μM using the DiscoverX KinomeScreen assay. The DiscoverX KinomeScreen assay is a site-directed competition binding assay which measures the binding affinity of a compound to a kinase, by use of a solid supported control compound which can bind or capture the kinases in solution. In the absence of a kinase-inhibitor test compound, all of the kinase will bind to the solid support. If a kinase-inhibitor test compound is added to the assay mix, the amount of kinase binding to the solid support will be reduced, the extent of reduction being dependent on the potency of the test compound as a kinase inhibitor. […] For most assays, kinase-tagged T7 phage strains were grown in parallel in 24-well blocks in an E. coli host derived from the BL21 strain. E. coli were grown to log-phase and infected with T7 phage from a frozen stock (multiplicity of infection=0.4) and incubated with shaking at 32° C. until lysis (90-150 minutes). The lysates were centrifuged (6,000×g) and filtered (0.2 μm) to remove cell debris. The remaining kinases were produced in HEK-293 cells and subsequently tagged with DNA for qPCR detection. Streptavidin-coated magnetic beads were treated with biotinylated small molecule ligands for 30 minutes at room temperature to generate affinity resins for kinase assays. The liganded beads were blocked with excess biotin and washed with blocking buffer (SeaBlock (Pierce), 1% BSA, 0.05% Tween 20, 1 mM DTT) to remove unbound ligand and to reduce non-specific phage binding. […] Test compounds were prepared as 40× stocks in 100% DMSO and directly diluted into the assay. All reactions were performed in polypropylene 384-well plates in a final volume of 0.02 ml. […] The beads were then re-suspended in elution buffer (1×PBS, 0.05% Tween 20, 0.5 μM non-biotinylated affinity ligand) and incubated at room temperature with shaking for 30 minutes. The kinase concentration in the eluates was measured by qPCR. Compounds that bind the kinase active site and directly (sterically) or indirectly (allosterically) prevent kinase binding to the immobilized ligand, will reduce the amount of kinase captured on the solid support. […] The strength of binding of the test molecule to the kinase can be expressed as the percent control (% Ctrl) The compound(s) were screened at 3000 nM concentration, and results for primary screen binding interactions are reported as ‘% Ctrl’, where lower numbers indicate stronger hits in the matrix on the following page(s). [formula] • negative control=DMSO (100% Ctrl) • positive control=control compound (0% Ctrl)

[4] = molecular target: T2, panel of ninety-seven kinases (Homo sapiens, UniProt P04049); test: as above; settings: RAF1; read-out: % Ctrl @ 3 μM
T2 construct: purchased DiscoverX; host or cells: T7 phage in E. coli (BL21-derived) for most kinases; HEK-293 for the rest
Procedure: as §2

[5] = molecular target: T3, panel of ninety-seven kinases (Homo sapiens, UniProt P04629); test: as above; settings: NTRK1; read-out: % Ctrl @ 3 μM
T3 construct: purchased DiscoverX; host or cells: T7 phage in E. coli (BL21-derived) for most kinases; HEK-293 for the rest
Procedure: as §2

[6] = molecular target: T4, panel of ninety-seven kinases (Homo sapiens, UniProt P07949); test: as above; settings: RET; read-out: % Ctrl @ 3 μM
T4 construct: purchased DiscoverX; host or cells: T7 phage in E. coli (BL21-derived) for most kinases; HEK-293 for the rest
Procedure: as §2

[7] = molecular target: T5, panel of ninety-seven kinases (Homo sapiens, UniProt P09619); test: as above; settings: PDGFRB; read-out: % Ctrl @ 3 μM
T5 construct: purchased DiscoverX; host or cells: T7 phage in E. coli (BL21-derived) for most kinases; HEK-293 for the rest
Procedure: as §2

[8] = molecular target: T6, panel of ninety-seven kinases (Homo sapiens, UniProt P21802); test: as above; settings: FGFR2; read-out: % Ctrl @ 3 μM
T6 construct: purchased DiscoverX; host or cells: T7 phage in E. coli (BL21-derived) for most kinases; HEK-293 for the rest
Procedure: as §2

[9] = molecular target: T7, panel of ninety-seven kinases (Homo sapiens, UniProt Q00536); test: as above; settings: CDK16; read-out: % Ctrl @ 3 μM
T7 construct: purchased DiscoverX; host or cells: T7 phage in E. coli (BL21-derived) for most kinases; HEK-293 for the rest
Procedure: as §2

[10] = molecular target: T8, panel of ninety-seven kinases (Homo sapiens, UniProt Q8IYT8); test: as above; settings: ULK2; read-out: % Ctrl @ 3 μM
T8 construct: purchased DiscoverX; host or cells: T7 phage in E. coli (BL21-derived) for most kinases; HEK-293 for the rest
Procedure: as §2

[11] = molecular target: T9, PLK1 catalytic domain (Homo sapiens, UniProt P53350); test: DiscoverX KinomeScreen competition binding assay, PLK1; settings: read-out: % Ctrl @ 3 μM
T9 construct: purchased DiscoverX; host or cells: T7 phage in E. coli (BL21-derived) or HEK-293
Procedure: Atropisomer A-2 has been tested for off-target activity against a panel of ninety-seven kinases distributed across the kinome at a concentration of 3 μM using the DiscoverX KinomeScreen assay. The DiscoverX KinomeScreen assay is a site-directed competition binding assay which measures the binding affinity of a compound to a kinase, by use of a solid supported control compound which can bind or capture the kinases in solution. In the absence of a kinase-inhibitor test compound, all of the kinase will bind to the solid support. If a kinase-inhibitor test compound is added to the assay mix, the amount of kinase binding to the solid support will be reduced, the extent of reduction being dependent on the potency of the test compound as a kinase inhibitor. […] For most assays, kinase-tagged T7 phage strains were grown in parallel in 24-well blocks in an E. coli host derived from the BL21 strain. […] The kinase concentration in the eluates was measured by qPCR. […] The strength of binding of the test molecule to the kinase can be expressed as the percent control (% Ctrl) The compound(s) were screened at 3000 nM concentration, and results for primary screen binding interactions are reported as ‘% Ctrl’, where lower numbers indicate stronger hits in the matrix on the following page(s). […]

[12] = test system: U87-Luc cells; test: U87-Luc orthotopic xenograft model; format: in vivo, male athymic nude mice; settings: oral 100 mg/kg on days 1, 4, 7, 10 and 13; Day 15
Procedure: U87-Luc cells were intracerebrally implanted into the brains of male athymic nude mice and tumour growth was monitored by bioluminescent signal. In the treatment group animals were given an oral dose of 100 mg/kg of atropisomer A-2 on days 1, 4, 7, 10 and 13. The control group animals were given vehicle only.

[13] = test system: HCT116 xenograft tumours; test: HCT116 subcutaneous xenograft model; format: in vivo, Male athymic nude mice; settings: oral 100 mg/kg on days 1, 8 and 15; day 20
Procedure: Male athymic nude mice bearing HCT116 xenograft tumours were give an oral dose of 100 mg/kg atropisomer A-2 on days 1, 8 and 15 and the tumour volumes were measured over 3 weeks. Tumour volumes in a control group of tumour-bearing mice, who had received vehicle only at the same time points were also measured.

T1 sequence (O75116 whole entry): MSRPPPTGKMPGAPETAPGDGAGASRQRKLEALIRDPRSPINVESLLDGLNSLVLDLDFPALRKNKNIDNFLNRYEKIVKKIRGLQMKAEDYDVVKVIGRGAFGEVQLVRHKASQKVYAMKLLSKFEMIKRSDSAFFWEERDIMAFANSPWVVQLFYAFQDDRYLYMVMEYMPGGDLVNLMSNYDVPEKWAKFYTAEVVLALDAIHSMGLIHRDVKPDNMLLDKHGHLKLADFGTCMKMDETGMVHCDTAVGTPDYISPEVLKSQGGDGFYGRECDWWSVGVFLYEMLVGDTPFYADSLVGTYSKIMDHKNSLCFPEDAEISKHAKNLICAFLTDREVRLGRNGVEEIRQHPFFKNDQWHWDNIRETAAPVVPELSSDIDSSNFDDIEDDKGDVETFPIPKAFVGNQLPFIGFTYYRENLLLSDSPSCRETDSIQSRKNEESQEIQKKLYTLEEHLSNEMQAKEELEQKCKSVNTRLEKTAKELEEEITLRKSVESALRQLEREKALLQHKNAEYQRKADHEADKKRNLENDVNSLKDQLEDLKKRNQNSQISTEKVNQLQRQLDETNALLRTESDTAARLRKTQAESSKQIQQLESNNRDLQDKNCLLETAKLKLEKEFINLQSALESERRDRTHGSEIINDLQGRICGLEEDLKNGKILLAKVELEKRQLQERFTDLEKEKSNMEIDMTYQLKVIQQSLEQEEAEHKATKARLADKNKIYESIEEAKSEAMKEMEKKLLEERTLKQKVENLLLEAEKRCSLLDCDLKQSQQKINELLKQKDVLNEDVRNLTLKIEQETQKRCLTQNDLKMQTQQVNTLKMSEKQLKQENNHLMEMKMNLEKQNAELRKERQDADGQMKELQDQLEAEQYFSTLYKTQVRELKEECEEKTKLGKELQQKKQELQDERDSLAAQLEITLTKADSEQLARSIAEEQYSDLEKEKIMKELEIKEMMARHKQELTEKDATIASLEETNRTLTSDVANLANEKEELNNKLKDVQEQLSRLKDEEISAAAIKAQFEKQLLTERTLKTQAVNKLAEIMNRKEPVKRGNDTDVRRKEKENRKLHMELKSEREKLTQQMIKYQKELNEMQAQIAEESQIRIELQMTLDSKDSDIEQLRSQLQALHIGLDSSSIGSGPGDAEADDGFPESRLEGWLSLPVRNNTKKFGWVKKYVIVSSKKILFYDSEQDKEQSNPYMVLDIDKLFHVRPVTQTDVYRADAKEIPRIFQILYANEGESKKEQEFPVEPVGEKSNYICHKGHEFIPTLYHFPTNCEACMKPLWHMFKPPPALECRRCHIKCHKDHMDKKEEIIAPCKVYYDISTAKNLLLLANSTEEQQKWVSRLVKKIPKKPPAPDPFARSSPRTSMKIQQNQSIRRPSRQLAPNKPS
T2 sequence (P04049 whole entry): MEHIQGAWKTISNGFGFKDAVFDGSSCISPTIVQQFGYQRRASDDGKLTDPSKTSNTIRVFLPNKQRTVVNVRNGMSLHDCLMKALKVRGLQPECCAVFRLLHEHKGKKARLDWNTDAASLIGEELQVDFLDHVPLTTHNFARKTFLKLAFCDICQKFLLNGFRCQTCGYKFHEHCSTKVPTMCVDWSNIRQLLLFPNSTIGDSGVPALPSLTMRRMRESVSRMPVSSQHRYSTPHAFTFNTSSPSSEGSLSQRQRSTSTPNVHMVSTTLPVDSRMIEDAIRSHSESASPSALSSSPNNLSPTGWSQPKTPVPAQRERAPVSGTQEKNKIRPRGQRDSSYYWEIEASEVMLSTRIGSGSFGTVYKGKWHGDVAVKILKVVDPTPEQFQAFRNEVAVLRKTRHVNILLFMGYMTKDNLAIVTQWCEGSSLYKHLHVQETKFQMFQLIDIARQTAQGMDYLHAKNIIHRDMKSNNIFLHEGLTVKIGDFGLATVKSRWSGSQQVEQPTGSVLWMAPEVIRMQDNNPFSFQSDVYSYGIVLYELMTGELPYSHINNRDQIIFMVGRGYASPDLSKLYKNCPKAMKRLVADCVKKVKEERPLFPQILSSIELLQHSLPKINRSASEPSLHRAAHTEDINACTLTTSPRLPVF
T8 sequence (Q8IYT8 whole entry): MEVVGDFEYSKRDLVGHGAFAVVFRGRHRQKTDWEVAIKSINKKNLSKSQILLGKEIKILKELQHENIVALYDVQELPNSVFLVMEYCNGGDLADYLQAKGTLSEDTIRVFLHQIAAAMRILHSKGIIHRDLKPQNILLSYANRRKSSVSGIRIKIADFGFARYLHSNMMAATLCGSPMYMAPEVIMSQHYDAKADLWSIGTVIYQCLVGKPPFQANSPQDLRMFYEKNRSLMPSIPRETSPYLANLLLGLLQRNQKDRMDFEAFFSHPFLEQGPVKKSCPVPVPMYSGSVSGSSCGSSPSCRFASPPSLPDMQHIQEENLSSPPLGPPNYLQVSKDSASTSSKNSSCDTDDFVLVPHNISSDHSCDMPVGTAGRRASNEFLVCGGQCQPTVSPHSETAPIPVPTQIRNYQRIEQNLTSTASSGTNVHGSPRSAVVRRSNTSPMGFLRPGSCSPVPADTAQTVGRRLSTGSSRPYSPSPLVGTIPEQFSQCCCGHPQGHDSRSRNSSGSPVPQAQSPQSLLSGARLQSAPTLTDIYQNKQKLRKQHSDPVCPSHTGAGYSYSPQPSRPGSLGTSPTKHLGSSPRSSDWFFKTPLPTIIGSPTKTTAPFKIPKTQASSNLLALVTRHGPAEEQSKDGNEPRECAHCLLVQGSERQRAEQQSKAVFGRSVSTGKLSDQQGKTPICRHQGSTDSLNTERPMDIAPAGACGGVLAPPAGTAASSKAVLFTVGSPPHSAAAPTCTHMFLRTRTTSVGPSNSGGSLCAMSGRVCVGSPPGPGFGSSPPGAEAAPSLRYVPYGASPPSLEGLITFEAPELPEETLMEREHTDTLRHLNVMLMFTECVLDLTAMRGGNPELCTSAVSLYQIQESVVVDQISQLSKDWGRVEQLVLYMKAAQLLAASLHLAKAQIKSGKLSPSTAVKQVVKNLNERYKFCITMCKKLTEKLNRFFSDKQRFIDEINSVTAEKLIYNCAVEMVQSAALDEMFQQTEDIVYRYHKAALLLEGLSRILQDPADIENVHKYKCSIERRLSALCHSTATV
T5 sequence (P09619 33-1106): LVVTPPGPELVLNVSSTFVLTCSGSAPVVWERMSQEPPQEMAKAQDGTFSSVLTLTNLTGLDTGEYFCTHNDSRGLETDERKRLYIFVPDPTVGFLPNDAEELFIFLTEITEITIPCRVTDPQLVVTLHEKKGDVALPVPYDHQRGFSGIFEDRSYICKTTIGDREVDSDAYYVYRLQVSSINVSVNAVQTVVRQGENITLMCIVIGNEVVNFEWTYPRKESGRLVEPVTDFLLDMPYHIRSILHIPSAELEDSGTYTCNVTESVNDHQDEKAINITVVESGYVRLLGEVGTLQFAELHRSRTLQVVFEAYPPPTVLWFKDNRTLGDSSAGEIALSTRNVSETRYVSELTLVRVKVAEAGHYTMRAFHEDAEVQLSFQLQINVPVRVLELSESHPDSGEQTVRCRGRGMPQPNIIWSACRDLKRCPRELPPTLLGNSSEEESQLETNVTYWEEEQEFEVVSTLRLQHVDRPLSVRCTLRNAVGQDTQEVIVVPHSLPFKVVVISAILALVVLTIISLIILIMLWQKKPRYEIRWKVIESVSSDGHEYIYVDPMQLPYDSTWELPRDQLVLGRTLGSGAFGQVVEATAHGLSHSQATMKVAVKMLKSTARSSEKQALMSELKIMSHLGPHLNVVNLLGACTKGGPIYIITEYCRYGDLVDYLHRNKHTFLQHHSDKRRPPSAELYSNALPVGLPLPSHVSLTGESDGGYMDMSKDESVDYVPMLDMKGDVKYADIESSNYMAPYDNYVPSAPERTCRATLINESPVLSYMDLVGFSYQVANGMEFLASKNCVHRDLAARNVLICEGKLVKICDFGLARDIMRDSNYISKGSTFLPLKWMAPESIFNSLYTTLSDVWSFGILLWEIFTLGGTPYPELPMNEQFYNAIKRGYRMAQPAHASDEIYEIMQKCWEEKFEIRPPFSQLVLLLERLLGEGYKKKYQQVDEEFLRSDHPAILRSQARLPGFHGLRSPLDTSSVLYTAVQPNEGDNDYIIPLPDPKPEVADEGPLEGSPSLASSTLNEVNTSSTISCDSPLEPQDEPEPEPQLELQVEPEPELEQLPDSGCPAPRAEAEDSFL
T9 sequence (P53350 53-305 limits assumed): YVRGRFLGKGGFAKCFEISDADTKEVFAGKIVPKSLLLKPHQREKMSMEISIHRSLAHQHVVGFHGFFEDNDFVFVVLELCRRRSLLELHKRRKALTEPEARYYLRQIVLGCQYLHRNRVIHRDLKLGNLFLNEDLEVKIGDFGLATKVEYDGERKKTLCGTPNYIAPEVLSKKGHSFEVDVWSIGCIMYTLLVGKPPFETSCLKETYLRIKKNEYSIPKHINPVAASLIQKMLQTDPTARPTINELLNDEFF
T7 sequence (Q00536 whole entry): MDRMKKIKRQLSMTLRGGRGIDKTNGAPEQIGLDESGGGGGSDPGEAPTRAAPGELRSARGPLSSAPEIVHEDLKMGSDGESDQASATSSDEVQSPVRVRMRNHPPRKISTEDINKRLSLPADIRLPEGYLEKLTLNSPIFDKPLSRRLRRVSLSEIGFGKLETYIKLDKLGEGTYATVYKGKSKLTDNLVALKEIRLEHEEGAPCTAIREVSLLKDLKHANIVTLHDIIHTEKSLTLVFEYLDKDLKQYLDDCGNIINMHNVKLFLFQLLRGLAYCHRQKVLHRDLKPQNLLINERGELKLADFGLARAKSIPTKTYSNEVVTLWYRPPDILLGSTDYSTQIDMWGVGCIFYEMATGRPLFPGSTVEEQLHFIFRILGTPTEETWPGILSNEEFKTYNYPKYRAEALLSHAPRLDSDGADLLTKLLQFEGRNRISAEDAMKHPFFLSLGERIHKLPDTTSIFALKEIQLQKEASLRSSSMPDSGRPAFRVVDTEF

Which solubility [1] does the source give for `CN(C)CCNC(=O)c1ccc(-c2ccc(-c3ccc(Cl)cc3)n2-c2ccccc2C(F)(F)F)cc1` (single isomer, unassigned) [Atropisomer A-2, 4-[5-(4-chlorophenyl)-1-[2-(trifluoromethyl)phenyl]pyrrol-2-yl]-N-[2-(dimethylamino)ethyl]benzamide] here?
Its solubility is under 5000 µg/mL.

What about the IC50 ([2]; HOT 116, Large intestine/Colorectum) of the same compound?
The IC50 was 230 nM.

And the IC50 ([2]; ML-2, Blood/Leukaemia)?
Its IC50 is 180 nM.

What about the IC50 ([2]; SVV620, Large intestine/Colorectum) of the same compound?
Its IC50 is 190 nM.

What about the “cell growth inhibition compared with atropisomer A-1” value ([2]; all of the cell lines of the panel) of the same compound?
Its value is “significantly more active”.

What about the percent of control kinase binding to immobilized ligand at 3 µM [3] of the same compound?
The percent of control kinase binding to immobilized ligand at 3 µM was 88%.

What about the percent of control kinase binding to immobilized ligand at 3 µM [4] of the same compound?
The percent of control kinase binding to immobilized ligand at 3 µM was 92%.

And the percent of control kinase binding to immobilized ligand at 3 µM [5]?
The percent of control kinase binding to immobilized ligand at 3 µM was 100%.

And the percent of control kinase binding to immobilized ligand at 3 µM [6]?
The percent of control kinase binding to immobilized ligand at 3 µM was 95%.

And the percent of control kinase binding to immobilized ligand at 3 µM [7]?
Its percent of control kinase binding to immobilized ligand at 3 µM is 100%.

What about the percent of control kinase binding to immobilized ligand at 3 µM [8] of the same compound?
Its percent of control kinase binding to immobilized ligand at 3 µM is 85%.

What about the percent of control kinase binding to immobilized ligand at 3 µM [9] of the same compound?
Its percent of control kinase binding to immobilized ligand at 3 µM is 100%.

What about the percent of control kinase binding to immobilized ligand at 3 µM [10] of the same compound?
The percent of control kinase binding to immobilized ligand at 3 µM was 93%.

And the remaining binding at 3 µM [11]?
Its remaining binding at 3 µM is 97%.

What about the “tumour bioluminescent signal treated versus control” value [12] of the same compound?
The value was “decrease in tumour signal”.

And the TGI [13]?
The TGI was 60%.

Reference: patent publication US20220348565A1, “PHARMACEUTICAL COMPOUNDS” (SENTINEL ONCOLOGY LIMITED, priority 2019, published 2022)
